Source: patent EP4722219A1 (Gan & Lee Pharmaceuticals Co., Ltd., priority 2023, dated 2024)

Tests used:
Format in all cases: cell-based
ERα [1] = target: T1, ERα (Homo sapiens, UniProt P03372); assay: ERα degradation in T-47D cells (Western blot); conditions: 4 hours
T1 sequence (P03372 1-595): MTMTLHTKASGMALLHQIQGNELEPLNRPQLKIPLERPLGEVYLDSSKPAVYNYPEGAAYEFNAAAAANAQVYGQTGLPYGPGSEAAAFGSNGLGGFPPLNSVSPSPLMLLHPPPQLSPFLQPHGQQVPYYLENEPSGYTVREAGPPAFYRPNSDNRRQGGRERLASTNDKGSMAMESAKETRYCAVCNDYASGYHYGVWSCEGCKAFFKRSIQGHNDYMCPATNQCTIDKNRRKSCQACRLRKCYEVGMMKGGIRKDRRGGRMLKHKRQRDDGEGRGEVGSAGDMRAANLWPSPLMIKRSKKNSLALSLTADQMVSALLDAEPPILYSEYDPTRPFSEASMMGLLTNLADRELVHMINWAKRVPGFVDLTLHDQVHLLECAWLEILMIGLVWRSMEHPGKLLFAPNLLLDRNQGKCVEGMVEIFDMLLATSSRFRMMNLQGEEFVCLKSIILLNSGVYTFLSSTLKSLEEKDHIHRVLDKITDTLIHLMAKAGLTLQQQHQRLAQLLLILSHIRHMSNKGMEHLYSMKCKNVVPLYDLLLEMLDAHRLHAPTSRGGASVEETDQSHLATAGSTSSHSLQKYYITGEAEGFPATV
Method: (§1) Western blotting: The total protein concentration in the collected cell lysate supernatant was determined using the BCA protein concentration assay kit (enhanced) (P0009, Beyotime). Based on the total protein concentration determined by BCA, the protein concentration was adjusted to 1 µg/µL using RIPA lysis buffer and 5× SDS-PAGE protein loading buffer (MB01015, GenScript). The protein was denatured in a 95°C water bath for 5 minutes. After denaturation, the condensed water on the tube wall was collected by centrifugation and used as the loading sample. 20µL of the loading sample (20 µg of total protein) was added to the sample well of a 12% precast gel (M00669, GenScript). Electrophoresis was performed at 100 V for 20 minutes, followed by switching to 150 V for 40 minutes. After electrophoresis, the proteins from the SDS-PAGE gel were transferred to a PVDF membrane at a constant voltage of 100 V for 60 minutes. After transfer, the PVDF membrane corresponding to the ERα protein and internal reference protein was cut and incubated in 1× QµickBlock blocking buffer (P0252, Beyotime) for 30 minutes at room temperature on a shaker. After blocking, the ERα primary antibody (1:1000, 8644S, CST) was added and incubated overnight at 4°C on a shaker. The PVDF membrane was washed three times with 1× TBST buffer for 5 minutes each. Rabbit IgG (H+L) secondary antibody (1:7500, SA5-35571, Invitrogen) was added and incubated for 1 hour at room temperature on a shaker. The membrane was then washed again three times with 1× TBST buffer for 5 minutes each. Finally, the membrane was imaged using a dual-color infrared laser imaging system (Odyssey DLx, LICOR). Protein maps were analyzed for grayscale value using Image Studio Lite software. The grayscale correction value for each sample was calculated using the formula: grayscale correction value = grayscale value of the target protein / grayscale value of the corresponding internal reference. Then the grayscale correction values of the compound group and the control group were compared to calculate the degradation rate of the compound. Table 4 Degradation rate of ERα by PROTAC compounds of the present invention and positive control in MCF-7 cells (%)
Test Example 5 Degradation of ERα by the PROTAC compounds disclosed in the present invention in T-47D cells
T-47D (ATCC) cells were cultured in PRMI-1640 medium (30-2001, ATCC) containing 10% FBS (10099141C, Gibco) at 37°C and 5% CO2 until they entered the logarithmic growth phase. T-47D cells were seeded at a density of 3×10^5 cells/well in a 6-well plate and incubated at 37°C, 5% CO2 for 24 hours. After cell attachment, 1 µL of compound dimethyl sulfoxide solution (final concentration 0.15-1000 nM) was added and incubated for another 4 hours at 37°C, 5% CO2 incubator. After 4 hours, the culture medium was discarded, and each well was washed once with 1 mL of pre-chilled 1× DPBS. The cells were then lysed with 50 µL of RIPA lysis buffer (P0013B, Beyotime) and 1× protease inhibitor cocktail (P1005, Beyotime). After incubation on ice for 20 minutes, the cells were centrifuged at 14,000 g at 4°C for 30 minutes. The supernatant was carefully collected and analyzed for ERα protein levels by immunoblotting. Table 5 Degradation rate of ERα by PROTAC compounds of the present invention and positive control sample in T-47D cells (%)

MCF-7 cells = assay: Inhibition of cell proliferation in MCF-7 cells (CCK-8); conditions: MCF-7 cell proliferation, 6 days treatment
Summary of the method: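 MCF-7 cells, 800 per well in DMEM plus 10% FBS, exposed to graded PROTAC concentrations for 6 days at 37 °C, 5% CO2. Viability by CCK-8; IC50 fitted from inhibition rates.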

T-47D cells = assay: Inhibition of cell proliferation in T-47D cells (CCK-8); conditions: 6 days treatment, CCK-8 cell viability
Summary of the method: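 T-47D cells (3,000/well) in RPMI-1640 with 10% FBS were exposed to a concentration range of PROTAC compounds for 6 days at 37 °C, 5% CO2. Viability read by CCK-8; IC50 fitted from inhibition rate.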

ERα [2] = target: T1, ERα; assay: ERα degradation in MCF-7 cells (Western blot); parameters: host or cells: MCF-7; conditions: 4 hours
Method: Test Example 4 Effect of PROTAC Compounds Disclosed in the Present Invention on ERα Degradation in MCF-7 Cells
MCF-7 (ATCC) cells were cultured in DMEM medium (11995-065, Gibco) containing 10% FBS (10099141C, Gibco) at 37°C and 5% CO2 until they entered the logarithmic growth phase. MCF-7 cells were plated at a density of 3×10^5 cells/well in a 6-well plate and incubated at 37°C, 5% CO2 for 24 hours. After cell attachment, 1µL of compound in dimethyl sulfoxide (final concentration 0.15-1000nM) was added and incubated for another 4 hours at 37°C, 5% CO2 incubator. After 4 hours, the culture medium was discarded, and each well was washed once with 1 mL of pre-chilled 1× DPBS. The cells were then lysed with 50 µL of RIPA lysis buffer (P0013B, Beyotime) and 1× protease inhibitor cocktail (P1005, Beyotime). After incubation on ice for 20 minutes, the cells were centrifuged at 14,000 g at 4°C for 30 minutes. The supernatant was carefully collected and analyzed for ERα protein levels by immunoblotting.
as §1

Row | Structure (SMILES) | Degradation rate of ERα in T-47D cells (%) (ERα [1]; 1nM) | Degradation rate of ERα in T-47D cells (%) (ERα [1]; 10nM) | IC50 (MCF-7 cells) | IC50 (T-47D cells) | Degradation rate of ERα in MCF-7 cells (%) (ERα [2]; 1nM) | Degradation rate of ERα in MCF-7 cells (%) (ERα [2]; 10nM) | IC50 (MCF-7 cells; Homo sapiens, MCF7, 144 h) | IC50 (T-47D cells; Homo sapiens, T47D, 144 h)
1 | O=C1CCC(Nc2ccc3c(c2)COC[C@H]2CN(CC4CCC(OC5CCN(c6ccc([C@@H]7c8ccc(O)cc8CC[C@@H]7c7ccccc7)cc6)CC5)CC4)CCN32)C(=O)N1 (single isomer, unassigned) [ER-P-51] | 14% | 12% | 1260 nM | 74.3 nM | 5% | 1% | – | –
2 | O=C1CC[C@H](N2Cc3cc(N4CCN(CC5CCN(c6ccc([C@@H]7c8ccc(O)cc8CC[C@@H]7c7ccccc7)cc6)CC5)CC4)ccc3C2=O)C(=O)N1 [ARV-471, reference compound] | 61% | 85% | – | – | 38% | 76% | 0.0017 nM | 0.0017 nM
3 | O=C1CCC(N2Cc3c(ccc4c3OCC43CCC4(CCN(CC5CCN(c6ccc([C@@H]7c8ccc(O)cc8CC[C@@H]7c7ccccc7)cc6)CC5)CC4)CC3)C2=O)C(=O)N1 (stereo partly drawn) [ER-P-1, 3-(1"-((1-(4-((1R,2S)-6-hydroxy-2-phenyl-1,2,3,4-tetrahydronaphthalen-1-yl)phenyl)piperidin-4-yl)methyl)-6-oxo-6,8-dihydro-2H,7H-dipyrazole[furo[2,3-e]isoindole-3,1'-cyclohexane-4',4'-piperidin]-7-yl)piperidine-2,6-dione] | 52% | 81% | – | – | 19% | 44% | < 0.256 nM | 3.74 nM
4 | O=C1CCC(N2Cc3c(ccc4c3OCC43CCC4(CCN(C5CCC6(CC5)CN(c5ccc([C@@H]7c8ccc(O)cc8CC[C@@H]7c7ccccc7)cc5)C6)CC4)CC3)C2=O)C(=O)N1 (stereo partly drawn) [ER-P-2] | 26% | 54% | – | – | 7% | 48% | 62.6 nM | 2.02 nM
5 | O=C1CCC(N2Cc3c(ccc4c3OCC43CCC4(CCN(C5CC6(CCN(c7ccc([C@@H]8c9ccc(O)cc9CC[C@@H]8c8ccccc8)cc7)CC6)C5)CC4)CC3)C2=O)C(=O)N1 (stereo partly drawn) [ER-P-3] | 28% | 73% | – | – | 25% | 69% | < 0.256 nM | 3.02 nM
6 | O=C1CCC(N2Cc3c(ccc4c3OCC43CCC4(CC3)CN(C(=O)C3CCN(c5ccc([C@@H]6c7ccc(O)cc7CC[C@@H]6c6ccccc6)cc5)CC3)C4)C2=O)C(=O)N1 (stereo partly drawn) [ER-P-4, 3-(1-(1-(4-(((1R,2S)-6-hydroxy-2-phenyl-1,2,3,4-tetrahydronaphthalen-1-yl)phenyl)piperidine-4-carbonyl)-6'-oxo-6',8'-dihydro-2'H,7'H-diazetidine-3,1'-cyclohexane-4',3"-furo[2,3-e]isoindol]-7'-yl)piperidine-2,6-dione] | 21% | 54% | – | – | 9% | 20% | 92000 nM | 3.63 nM
7 | O=C1CCC(N2Cc3c(ccc4c3OCC43CCC4(CCN(C5CCN(C(=O)C6CCN(c7ccc([C@@H]8c9ccc(O)cc9CC[C@@H]8c8ccccc8)cc7)CC6)CC5)CC4)CC3)C2=O)C(=O)N1 (stereo partly drawn) [ER-P-5] | 39% | 79% | – | – | 25% | 57% | < 0.256 nM | 0.96 nM
8 | O=C1CCC(N2Cc3c(ccc4c3OCC43CCC4(CC3)CN(C3CCN(C(=O)C5CCN(c6ccc([C@@H]7c8ccc(O)cc8CC[C@@H]7c7ccccc7)cc6)CC5)CC3)C4)C2=O)C(=O)N1 (stereo partly drawn) [ER-P-6] | 61% | 83% | – | – | 55% | 71% | < 0.256 nM | 0.86 nM
9 | Cn1c(=O)n(C2CCC(=O)NC2=O)c2ccc3c(c21)C1(CCN(C(=O)[C@H]2CC[C@H](CN4CCN(c5ccc([C@@H]6c7ccc(O)cc7CC[C@@H]6c6ccccc6)cc5)CC4)CC2)CC1)CO3 (stereo partly drawn) [ER-P-7] | 44% | 77% | – | – | 22% | 62% | 603 nM | 1.74 nM
10 | O=C1CCC(N2Cc3c(ccc4c3OCC43CCC4(CC3)CN(C3CCC5(CC3)CCN(c3ccc([C@@H]6c7ccc(O)cc7CC[C@@H]6c6ccccc6)cc3)CC5)C4)C2=O)C(=O)N1 (stereo partly drawn) [ER-P-9] | 46% | 83% | – | – | 30% | 71% | 7.44 nM | 1.96 nM
